SMILES strings stand for the structures. “Also recorded” adds a separate entry of the source.

This data set can be described thus: Ovariectomized mice on high fat diet (HFD): body weight, abdominal fat, uterus and mammary gland. The data set is classed as in vivo. On the procedure:
To test the effects of the two PEs (3 and 39) in animals, 10 week old ovariectomized C57/B16 female mice were placed on a high fat diet (HFD) for 50 days to increase body weight and abdominal fat. After gaining weight, the mice were treated orally for 6 weeks with the two PEs separately while being kept on HFD. The vehicle-treated (placebo) control mice continued to gain weight (9% weight increase) even after treatment. The E2-treated mice, which served as positive controls lost 20.5% of their weight. […] The abdominal fat weight dropped by 48% or 32% in the PE-treated groups (3, 39, respectively) and 80% in E2-treated mice compared to control. The growth of mammary gland (MG) and uteri was assessed by measuring MG and uterine weights and by analyzing MG morphology in whole-mounts. […] FIG. 4.

The mark [1] stands for this setting: ovariectomized mice on HFD, 42 days.

Take `C[C@]12CC[C@@H]3c4ccc(O)cc4CC[C@H]3[C@@H]1CC[C@@H]2O` [Extract E2, estradiol]: the body weight lost (ovariectomized C57/B16 female mice on HFD, treated 6 weeks) is given as 20.5%. For the same compound, the “abdominal fat weight drop compared to control” value (ovariectomized mice on HFD, 6 weeks treatment) was found to be 80%. For the same compound, under setting [1], the “mammary gland morphology (ducts, histology / whole-mounts)” value is “elongation and branching of ducts in mammary tissue; also recorded: induced elongation and branching of mammary ducts”; the “uterine weight (in words)” value is listed as “induced uterine tissue weight gain; also recorded: induced significant weight gain in the uterus”.
